“Also recorded” adds a separate entry of the source. Like-named read-outs stand apart in the source and are kept apart here.
Key:
[1] = system: HIV-1 Env-pseudoviruses (30-strain panel); assay: Neutralization assay, cross-clade 30-strain panel (Env-pseudoviruses, TZM-bl target cells); format: cell-based; settings: for IC50: Human immunodeficiency virus 1, TZM-bl; for number of viruses neutralized: of the 30 viruses
Experimental: Neutralization was measured using single-round-of-infection HIV-1 Env-pseudoviruses and TZM-bl target cells (ARP Cat No. #8129)[44],[45]. Compounds were prepared at 400 μM with 4% DMSO (dimethyl sulfoxide) in PBS (phosphate-buffered saline) and diluted 20 times as the starting concentration for serial dilution in the neutralization assays. […] After incubation at 37 °C for 2 days, infection of target cells was measured by luciferase activity. Neutralization curves were fit by nonlinear regression using a five-parameter hill slope equation[45].

[2] = system: TZM-bl cells; set-up: method as in literature; settings: not measured here; ref literature; cited from earlier work
[3] = system: TZM-bl cells; assay: Cytotoxicity in the neutralization assay (TZM-bl cells + drugs); settings: highest concentration (20 μM)
[4] = system: HIV-1 strain NL4-3; assay: Entry inhibition of laboratory-adapted HIV-1 strain NL4-3; format: cell-based
[5] = 242-14 (Clade AG), read-out: IC50
[6] = 247-23 (Clade D), read-out: IC50
[7] = 0330.v4.c3 (Clade A), read-out: IC50
[8] = 7165.18 (Clade B), read-out: IC50
[9] = BJOX028000.10.3 (Clade AE), read-out: IC50
[10] = BL01.DG (Clade B), read-out: IC50
[11] = C4118.09 (Clade AE), read-out: IC50
[12] = CAP210.E8 (Clade C), read-out: IC50
[13] = CH119.10 (Clade BC), read-out: IC50
[14] = CNE10 (Clade B), read-out: IC50
[15] = CNE20 (Clade BC), read-out: IC50
[16] = CNE56 (Clade AE), read-out: IC50
[17] = DJ263.8 (Clade AG), read-out: IC50
[18] = DU156.12 (Clade C), read-out: IC50
[19] = Geomean, 30-strain panel, read-out: Geometric mean IC50
[20] = KER2008.12 (Clade A), read-out: IC50
[21] = MB201.A1 (Clade A), read-out: IC50
[22] = NKU3006.ec1 (Clade D), read-out: IC50
[23] = P0402.c2.11 (Clade G), read-out: IC50
[24] = PVO.04 (Clade B), read-out: IC50
[25] = R3265.c6 (Clade AE), read-out: IC50
[26] = REJO.67 (Clade B), read-out: IC50
[27] = T253-11 (Clade AG), read-out: IC50
[28] = T280-5 (Clade AG), read-out: IC50
[29] = ZM106.9 (Clade C), read-out: IC50

SMILES | IC50 [1, 5] | IC50 [1, 6] | IC50 [1, 7] | IC50 ([1]; 426c (Clade C), read-out: IC50) | IC50 [1, 8] | IC50 ([1]; B41 (Clade B), read-out: IC50) | IC50 [1, 9] | IC50 [1, 10] | IC50 [1, 11] | IC50 [1, 12] | IC50 [1, 13] | IC50 [1, 14] | IC50 [1, 15] | IC50 [1, 16] | IC50 [1, 17] | IC50 [1, 18] | IC50 [1, 19] | IC50 [1, 20] | IC50 [1, 21] | IC50 [1, 22] | other results
COc1ccnc2[nH]cc(C(=O)C(=O)N3CCN(C(=O)c4ccccc4)C[C@H]3C)c12 [BMS-378806, 4-benzoyl-1-[(4-methoxy-1H-pyrrolo[2,3-b]pyridin-3-yl)oxoacetyl]-2-(R)-methylpiperazine, reference compound] |  |  |  |  |  |  |  |  |  |  |  |  |  |  |  |  |  |  |  |  | IC50 ([1]; read-out: Geometric mean IC50): > 0.912 µM; Cytotoxicity [2]: lack of cytotoxicity
O=C(C(=O)N1CCN(C(=O)c2ccccc2)CC1)c1c[nH]c2c(F)ccc(Br)c12 [BMS-386150] | 7.02 µM | > 20 µM | > 20 µM | 6.62 µM | > 20 µM | 0.117 µM | > 20 µM | > 20 µM | > 20 µM | > 20 µM | 13.7 µM | 0.509 µM | > 20 µM | > 20 µM | > 20 µM | 1.35 µM | > 6.72 µM | > 20 µM | > 20 µM | 0.256 µM | fold lower neutralization potency than BMS-378806 ([1]; 30-strain panel): ~ 7 fold; IC50 [1, 23]: > 20 µM; IC50 [1, 24]: 0.664 µM; IC50 [1, 25]: > 20 µM; IC50 [1, 26]: > 20 µM; IC50 [1, 27]: 0.541 µM; IC50 [1, 28]: 2.02 µM; IC50 [1, 29]: 10.8 µM; IC50 ([1]; read-out: IC50): 4.67 µM
COc1cnc(-c2csc(CN(C)CCCN(C)C)n2)c2[nH]cc(C(=O)C(=O)N3CCC(=C(C#N)c4ccccc4)CC3)c12 [BMS-814508] | 0.015 µM | 0.016 µM | 0.096 µM | 0.036 µM | 0.491 µM | 0.001 µM | > 4 µM | 2.81 µM | 2 µM | 0.4 µM | 0.004 µM | 0.004 µM | 0.143 µM | > 4 µM | < 0.0003 µM | 0.02 µM | > 0.051 µM | 0.165 µM | 0.192 µM | 0.001 µM | Cytotoxicity [3]: showed cytotoxicity; also recorded: Cytotoxicity was observed; EC50 ([4]; Human immunodeficiency virus 1, NL43, NL4-3): 0.000495 ± 6.9e-05 µM; fold more potent than BMS-626529 ([4]; NL4-3 EC50): 4 fold; IC50 [1, 23]: 0.012 µM; IC50 [1, 24]: 0.002 µM; IC50 [1, 25]: 1.06 µM; IC50 [1, 26]: 2.73 µM; IC50 [1, 27]: < 0.0003 µM; IC50 [1, 28]: 0.0008 µM; IC50 [1, 29]: 0.031 µM; IC50 ([1]; read-out: IC50): 0.008 µM; number of viruses neutralized [1]: 28
O=C(c1ccsc1)N1CCN(C(=O)C2(c3cccc(Cl)c3)CC2)CC1 [Compound 484, reference compound] | > 20 µM | > 20 µM | > 20 µM | 13.4 µM | > 20 µM | 1.73 µM | > 20 µM | > 20 µM | > 20 µM | > 20 µM | > 20 µM | 1.94 µM | > 20 µM | > 20 µM | 2.78 µM | 7.69 µM | > 12.3 µM | > 20 µM | > 20 µM | 1.65 µM | IC50 [1, 23]: > 20 µM; IC50 [1, 24]: 7.87 µM; IC50 [1, 25]: > 20 µM; IC50 [1, 26]: > 20 µM; IC50 [1, 27]: 3.35 µM; IC50 [1, 28]: 11.9 µM; IC50 [1, 29]: > 20 µM; IC50 ([1]; […], read-out: IC50): 13.6 µM; IC50 ([1]; read-out: IC50): > 20 µM; number of viruses neutralized [1]: 11
